pIC50: −log10 of the molar value. Structures can show the parent of a compound that is named as a salt.
Columns and labels:
[1] = biological target: T1, α4β1 integrin (Jurkat cell adhesion to immobilized CS-1 derived peptide CLHPGEILDVPST) (Homo sapiens, UniProt P05556+P13612); assay: Jurkat-CS-1 Assay; format: cell-based; conditions: Jurkat cells on CS-1 peptide coated plates
T1 construct: 100 μl of Jurkat cells (2.5×10^6 cells/ml) in DMEM plus BSA; endogenous in cells; host or cells: Jurkat T-cell line
Protocol: The CS-1 derived peptide, CLHPGEILDVPST, and the scrambled control peptide, CLHGPIELVSDPT, were synthesized on a Beckman 990 synthesizer using t-Boc methodology. The peptides were immobilized onto microtiter plates using the heterobifunctional crosslinker 3-(2-pyridyldithio)propionic acid N-hydroxysuccinimide ester (SPDP) as reported by Pierschbacher et al., Proc. Natl. Acad. USA, 80:1224-1227 (1983). Microtiter plates were coated with 20 μg/ml HSA for 2 hr. at room temperature, washed once with PBS and derivatized with 10 μg/ml SPDP for 1 hr. After washing, 100 μl of a 100 μg/ml cysteine containing peptide solution which had been recently dissolved was added to the wells and allowed to crosslink to the plates overnight at 4° C. Unbound peptide was removed from plates by washing with PBS. To block non-reacted sites, the plates are coated with 100 μl of a 2.5 mg/ml BSA solution in PBS for 1 hr. at 37° C. 100 μl of Jurkat cells (2.5×10^6 cells/ml) in DMEM plus BSA (2.5 mg/ml) was mixed with an appropriate concentration of the compound to be tested and the mixture was added to peptide coated dishes and incubated for 1 hr. at 37° C. Generally 100, 20, 5 and 1.25 μM concentrations of the compound were tested.
Following this incubation the plates were washed once with PBS and the attached cells were fixed with 3% paraformaldehyde in PBS and stained with 0.5% toluidine blue in 3.7% formaldehyde. The cells were stained overnight at room temperature and the optical density at 590 nm of toluidine blue stained cells was determined using a vertical pathway spectrophotometer to quantitate attachment (VMAX Kinetic Microplate Reader, Molecular Devices, Menlo Park, Calif.). This procedure is a modification of a previously published method (Cardarelli et al, J. Biol. Chem., 269:18668-18673 (1994) and Cardarelli et al, Proc. Natl. Acad. Sci. USA, 83:2647-2651 (1986)).

[2] = biological target: T2, α4β1 integrin (Jurkat T-cell adhesion to IL-1 stimulated endothelial cell monolayers) (Homo sapiens, UniProt P05556+P13612); assay: Jurkat-Endothelial Cell Adhesion Assay (Jurkat EC); format: cell-based; conditions: Jurkat cells on IL-1 stimulated HUVEC monolayers
T2 construct: a T-cell line, Jurkat, known to express the α4β1 integrin; host or cells: Jurkat T-cell line
Protocol: The following assay established the activity of the present compounds in inhibiting β1-mediated cell adhesion in a representative in vitro system. This assay measures the adhesive interactions of a T-cell line, Jurkat, known to express the α4β1 integrin, to endothelial monolayers in the presence of test compounds. The test compounds were added in increasing concentrations to T-cells and then the T-cell compound mixture was added to IL-1 stimulated endothelial cell monolayers. The plates were incubated, washed and the percentage of attached cells was quantitated. […] Human umbilical vein endothelial cells were purchased from Clonetics (San Diego, Calif.) at passage number 2. The cells were grown on 0.5% porcine skin gelatin pre-coated flasks (Sigma, St. Louis Mo.) in EGM-UV media (Clonetics, San Diego, Calif.) supplemented with 10% fetal bovine serum. Cells are refed every 2-3 days reaching confluence by day 4 to 6. […] The endothelial cells are not used following passage 6. Am The T-cell line Jurkat was obtained from American Type Tissue Culture Collection (Rockville, Md.) and the cells were cultured in RPMI containing 10% fetal calf serum. The cells were washed twice in Hank's Balanced Salt Solution (HBSS) and resuspended in Dulbecco's […] Eagle's Media (DMEM) containing 2.5 mg/ml Human Serum Albumin (HSA). Jurkat cells (1×10^6 cells/ml) were stained with 10 ng/ml BCECF-AM z z (Molecular Probes, Eugene, Ore.)) in HBSS without phenol red. The cells were loaded with BCECF for 60 minutes in the dark at 37° C., washed 2 times, and resusupended in DMEM-HSA solution.
Confluent endothelial monolayers, grown in 96-well tissue culture plates, were stimulated for 4 hr. at 37° C. with 0.1 ng/ml (˜50 U/ml) recombinant IL-1 (Amgen, Thousand Oaks, Calif.). Following this incubation, the monolayers were washed twice with HBSS and 0.1 ml of DMEM-HSA solution was added. Jurkat cells (5×10^5 cells) were combined with the appropriate concentration of the test compound and 0.1 ml of the Jurkat cell-compound mixture was added to the endothelial cell monolayers. Generally, 100, 20, 5 and 1.25 μM compound concentrations were tested. […] The plates were placed on ice for 5 minutes to allow for Jurkat cell settling and the plates were incubated at 37° C. for 20 minutes. Following this incubation, the monolayers were washed twice with PBS containing 1 mM calcium chloride and 1 mM magnesium chloride and the plates were read using a Millipore Cytofluor 2300 (Marlboro, Mass.). Fluorescence in each well was measured as Arbitrary Fluorescence Units and percent adhesion in the absence of compound was adjusted to 100% and the % adhesion in the presence of compound was calculated. Monolayers were also fixed in 3% paraformaldehyde and evaluated microscopically to verify the adhesion. This procedure is a modification of a previously published method (Cardarelli et al., J. Biol. Chem. 269:18668-18673 (1994)).

T1 sequence (P13612 34-1032): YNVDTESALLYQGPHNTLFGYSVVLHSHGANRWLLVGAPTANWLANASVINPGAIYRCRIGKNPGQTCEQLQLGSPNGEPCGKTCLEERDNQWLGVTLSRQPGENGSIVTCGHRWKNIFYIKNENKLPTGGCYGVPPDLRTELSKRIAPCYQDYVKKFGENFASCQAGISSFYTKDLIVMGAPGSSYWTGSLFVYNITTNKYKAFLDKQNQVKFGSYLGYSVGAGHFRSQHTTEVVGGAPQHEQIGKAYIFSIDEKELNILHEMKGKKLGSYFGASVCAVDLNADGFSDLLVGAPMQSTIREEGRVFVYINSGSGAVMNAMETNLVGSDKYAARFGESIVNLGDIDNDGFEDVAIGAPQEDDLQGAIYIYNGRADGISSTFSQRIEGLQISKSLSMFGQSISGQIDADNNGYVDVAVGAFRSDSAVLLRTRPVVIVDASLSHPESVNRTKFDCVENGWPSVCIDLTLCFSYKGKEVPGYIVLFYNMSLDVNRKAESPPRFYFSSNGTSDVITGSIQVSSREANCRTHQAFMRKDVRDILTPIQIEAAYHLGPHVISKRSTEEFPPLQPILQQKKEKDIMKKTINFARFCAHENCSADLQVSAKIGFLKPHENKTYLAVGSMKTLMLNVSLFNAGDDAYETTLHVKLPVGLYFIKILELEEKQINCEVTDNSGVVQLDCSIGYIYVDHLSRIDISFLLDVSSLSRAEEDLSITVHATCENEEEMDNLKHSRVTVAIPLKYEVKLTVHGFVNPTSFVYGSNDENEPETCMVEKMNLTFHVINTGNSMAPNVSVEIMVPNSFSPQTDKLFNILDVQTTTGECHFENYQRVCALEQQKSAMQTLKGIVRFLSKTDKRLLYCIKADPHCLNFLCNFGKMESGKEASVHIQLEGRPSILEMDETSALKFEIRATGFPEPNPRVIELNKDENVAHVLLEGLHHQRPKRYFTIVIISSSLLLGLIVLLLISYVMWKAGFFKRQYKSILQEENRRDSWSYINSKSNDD
T1 sequence (P05556 21-798): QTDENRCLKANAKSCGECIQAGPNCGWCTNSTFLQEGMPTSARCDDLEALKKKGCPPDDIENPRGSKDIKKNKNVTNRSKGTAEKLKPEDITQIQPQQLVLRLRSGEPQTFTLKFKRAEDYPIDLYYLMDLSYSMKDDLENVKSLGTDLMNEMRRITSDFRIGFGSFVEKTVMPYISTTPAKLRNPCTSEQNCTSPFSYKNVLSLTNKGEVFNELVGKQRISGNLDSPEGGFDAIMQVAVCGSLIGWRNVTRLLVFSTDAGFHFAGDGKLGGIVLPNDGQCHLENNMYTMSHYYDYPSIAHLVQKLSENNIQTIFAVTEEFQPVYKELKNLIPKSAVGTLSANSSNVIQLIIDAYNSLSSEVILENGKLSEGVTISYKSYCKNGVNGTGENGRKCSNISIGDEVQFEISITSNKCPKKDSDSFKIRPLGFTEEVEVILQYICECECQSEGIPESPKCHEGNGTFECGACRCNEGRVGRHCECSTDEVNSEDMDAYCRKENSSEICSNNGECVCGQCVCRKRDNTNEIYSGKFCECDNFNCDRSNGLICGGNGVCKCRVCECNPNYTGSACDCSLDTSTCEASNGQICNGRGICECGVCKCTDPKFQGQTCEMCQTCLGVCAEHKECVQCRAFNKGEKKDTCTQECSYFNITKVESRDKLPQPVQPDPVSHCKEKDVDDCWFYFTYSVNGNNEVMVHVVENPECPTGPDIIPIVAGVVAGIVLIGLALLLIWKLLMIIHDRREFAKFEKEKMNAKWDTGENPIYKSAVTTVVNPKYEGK
T2 sequence (P13612 34-1032): as the sequence (P13612 34-1032) above
T2 sequence (P05556 21-798): as the sequence (P05556 21-798) above

| SMILES | pIC50 [1] | pIC50 [2] |
| --- | --- | --- |
| CC1(C)[C@@H](C(=O)N[C@@H](Cc2ccc(NC(=O)c3c(Cl)cccc3Cl)cc2)C(=O)O)CC[C@@]1(C)C(=O)N1CCOCC1 [Example 225, (1S-cis)-4-[(2,6-Dichlorobenzoyl)amino]-N-[[2,2,3-trimethyl-3-[(4-morpholinyl)carbonyl]-cyclopentyl]carbonyl]-L-phenylalanine] | ≥ 7.10 | ≥ 6.10 |
| CC1(C)[C@@H](C(=O)N[C@@H](Cc2ccc(C(=O)Nc3ccc(-c4ccccc4)cc3)cc2)C(=O)O)CC[C@@]1(C)C(=O)O [Example 220] | 6.30 to 7.10 | 5.30 to 6.10 |
| C[C@H](NC(=O)[C@]1(C)CC[C@H](C(=O)N[C@@H](Cc2ccc(NC(=O)c3c(Cl)cccc3Cl)cc2)C(=O)O)C1(C)C)C(=O)O (relative stereo) [Example 211, [1S-[1α,3α(S*)]]-N-[[3-[[(1-Carboxyethyl)amino]carbonyl]-2,2,3-trimethylcyclopentyl]carbonyl]-4-[(2,6-dichlorobenzoyl)amino]-L-phenylalanine] | ≥ 7.10 | ≥ 6.10 |
| CC1(C)[C@@H](C(=O)N[C@@H](Cc2ccc(NC(=O)c3c(Cl)cccc3Cl)cc2)C(=O)O)CC[C@@]1(C)C(=O)N1CCC[C@H]1C(N)=O (relative stereo) [Example 213, [1S-[1α,3α(R*)]]-N-[3-[[2-(Aminocarbonyl)-1-pyrrolidinyl]carbonyl]-2,2,3-trimethylcyclopentyl]-carbonyl]-4-[(2,6-dichlorobenzoyl)amino]-L-phenylalanine monosodium salt] | 6.30 to 7.10 | 5.30 to 6.10 |
| COC(=O)[C@H](Cc1ccc(NC(=O)c2cc(C(F)(F)F)ccc2C(F)(F)F)cc1)NC(=O)[C@H]1CC[C@@](C)(C(=O)O)C1(C)C [Example 103] | ≥ 7.10 | ≥ 6.10 |
| CC1(C)[C@@H](C(=O)N[C@@H](Cc2cn(Cc3ccccc3C(F)(F)F)cn2)C(=O)O)CC[C@@]1(C)C(=O)O [Example 36] | 6.00 to 6.30 | 5.00 to 5.30 |
| CC1(C)[C@@H](C(=O)N[C@H](Cc2ccc(OCc3c(Cl)cccc3Cl)cn2)C(=O)O)CC[C@@]1(C)C(=O)O (relative stereo) [Example 254, [1S-[1α(R*),3α]]-α-[[(3-Carboxy-2,2,3-trimethylcyclopentyl)carbonyl]amino]-3-[(2,6-dichlorophenyl)methoxy]-6-pyridinepropanoic acid] | 6.30 to 7.10 | 5.30 to 6.10 |
| CC1(C)[C@@H](C(=O)N[C@@H](Cc2ccc(C(=O)Nc3ccccc3C(F)(F)F)cc2)C(=O)O)CC[C@@]1(C)C(=O)O [Example 222] | 6.30 to 7.10 | ≥ 6.10 |
| COC(=O)[C@H](Cc1ccc(NC(=O)c2c(Cl)cc(Cl)cc2Cl)cc1)NC(=O)[C@H]1CC[C@@](C)(C(=O)O)C1(C)C [Example 92] | ≥ 7.10 | ≥ 6.10 |
| CC1(C)[C@@H](C(=O)N[C@@H](Cc2ccc(OCc3ccc4ccccc4c3)cc2)C(=O)O)CC[C@@]1(C)C(=O)O [Example 10] | 6.30 to 7.10 | 5.30 to 6.10 |
| CC1(C)[C@@H](C(=O)N[C@@H](Cc2ccc(C(=O)Nc3ccc(Cl)cc3)cc2)C(=O)O)CC[C@@]1(C)C(=O)O [Example 221] | 6.00 to 6.30 | 5.00 to 5.30 |
| CC1(C)[C@@H](C(=O)O)CC[C@@]1(C)C(=O)N[C@@H](Cc1ccc(OCc2c(Cl)cccc2Cl)cc1)C(=O)O [Example 186, (1R-cis)-N-[(3-Carboxy-1,2,2-trimethylcyclopentyl)carbonyl]-O-[(2,6-dichlorophenyl)methyl]-L-tyrosine] | 6.30 to 7.10 | 5.30 to 6.10 |
| COC(=O)[C@H](Cc1ccc(NC(=O)c2ccccc2C)cc1)NC(=O)[C@H]1CC[C@@](C)(C(=O)O)C1(C)C [Example 137] | 6.30 to 7.10 |  |
| COc1ccc(Cn2cnc(C[C@H](NC(=O)[C@H]3CC[C@@](C)(C(=O)O)C3(C)C)C(=O)O)c2)cc1 [Example 31] |  | 5.00 to 5.30 |
| CC1(C)[C@H](C(=O)N[C@@H](Cc2ccc(OCc3c(Cl)cccc3Cl)cc2)C(=O)O)CC[C@]1(C)C(=O)O [Example 189, (1R-cis)-N-[(3-Carboxy-2,2,3-trimethylcyclopentyl)carbonyl]-O-[(2,6-dichlorophenyl)methyl]-L-tyrosine] |  | 5.30 to 6.10 |
